Results taken from PMC9090415, “Discovery of small molecule inhibitors of Plasmodium falciparum apicoplast DNA polymerase” (Journal of Enzyme Inhibition and Medicinal Chemistry, 2022).

Molecular target: T1, bacteriophage T4 DNA polymerase (Enterobacteria phage T4, UniProt P04415)
T1 construct: made in house
T1 sequence (P04415 1-898): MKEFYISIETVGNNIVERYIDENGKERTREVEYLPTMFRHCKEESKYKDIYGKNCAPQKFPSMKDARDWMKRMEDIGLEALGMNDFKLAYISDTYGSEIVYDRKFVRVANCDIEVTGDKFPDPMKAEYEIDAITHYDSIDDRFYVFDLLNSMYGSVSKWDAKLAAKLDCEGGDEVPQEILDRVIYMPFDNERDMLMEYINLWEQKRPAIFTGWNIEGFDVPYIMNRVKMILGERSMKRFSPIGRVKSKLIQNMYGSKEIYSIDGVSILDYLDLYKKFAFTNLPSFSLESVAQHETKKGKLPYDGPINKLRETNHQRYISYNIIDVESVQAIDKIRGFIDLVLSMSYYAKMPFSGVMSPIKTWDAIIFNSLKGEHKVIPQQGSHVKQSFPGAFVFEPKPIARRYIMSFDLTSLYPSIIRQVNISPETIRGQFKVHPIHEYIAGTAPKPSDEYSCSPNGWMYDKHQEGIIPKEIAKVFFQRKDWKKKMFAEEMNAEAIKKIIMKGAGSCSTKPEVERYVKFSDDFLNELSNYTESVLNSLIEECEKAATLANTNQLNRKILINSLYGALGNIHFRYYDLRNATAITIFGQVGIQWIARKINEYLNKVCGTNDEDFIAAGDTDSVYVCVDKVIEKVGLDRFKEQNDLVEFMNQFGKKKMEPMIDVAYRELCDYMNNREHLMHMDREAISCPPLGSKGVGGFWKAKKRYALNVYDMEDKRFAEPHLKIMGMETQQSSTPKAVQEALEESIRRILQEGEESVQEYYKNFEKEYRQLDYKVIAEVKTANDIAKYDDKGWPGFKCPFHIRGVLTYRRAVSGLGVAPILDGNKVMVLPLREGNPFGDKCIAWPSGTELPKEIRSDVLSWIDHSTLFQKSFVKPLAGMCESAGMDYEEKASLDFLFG
Test: Counter-screen against bacteriophage T4 DNA polymerase
Format: biochemical
Settings: for % inhibition T4 10' 2.5 / % inhibition T4 10' 5 / % inhibition T4 10' 10 / % inhibition T4 10' 20 / % inhibition T4 10' 40 / % inhibition T4 10' 80: read at 10'
Outline: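 Purified T4 DNA polymerase, a B-family enzyme, served as the counter-screen enzyme. Compounds were tested in dose-response format and IC50 values were derived.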

CCOC(=O)C1=C2c3cc(OC)c(OC)cc3CC(C)(C)N2C(=O)C1=O [KU0193659]
% inhibition T4 10' (DRC-2, concentration 2.5): 9% | % inhibition T4 10' (DRC-2, concentration 5): 6.54% | % inhibition T4 10' (DRC-2, concentration 10): 23% | % inhibition T4 10' (DRC-2, concentration 20): 29% | % inhibition T4 10' (DRC-2, concentration 40): 38% | % inhibition T4 10' (DRC-2, concentration 80): 45% | % inhibition T4 40' (DRC-2, concentration 2.5): 9% | % inhibition T4 40' (DRC-2, concentration 5): 6.54% | % inhibition T4 40' (DRC-2, concentration 10): 23% | % inhibition T4 40' (DRC-2, concentration 20): 29% | % inhibition T4 40' (DRC-2, concentration 40): 38% | % inhibition T4 40' (DRC-2, concentration 80): 45% | % inhibition T4 90' (DRC-2, concentration 2.5): 8% | % inhibition T4 90' (DRC-2, concentration 40): 37% | % inhibition T4 90' (DRC-2, concentration 80): 44% | % inhibition T4 180' (DRC-2, concentration 2.5): 9% | % inhibition T4 180' (DRC-2, concentration 5): 8% | % inhibition T4 180' (DRC-2, concentration 40): 37% | % inhibition T4 180' (DRC-2, concentration 80): 44%

COc1ccc(C2CC(c3ccc(Cl)cc3Cl)Nc3nc(N)nn32)cc1OC (stereo not shown) [Molecule 43, COc1cc(ccc1OC)C1CC(Nc2n1nc(n2)N)c1ccc(cc1Cl)Cl]
% inhibition T4 10' 2.5 (DRC-1, concentration 2.5): 8.55% | % inhibition T4 10' 5 (DRC-1, concentration 5): 0.398% | % inhibition T4 10' 10 (DRC-1, concentration 10): 3.64% | % inhibition T4 10' 20 (DRC-1, concentration 20): 1.67% | % inhibition T4 10' 40 (DRC-1, concentration 40): 9% | % inhibition T4 10' 80 (DRC-1, concentration 80): 12% | % inhibition T4 70' 2.5 (DRC-1, read at 70', concentration 2.5): 8% | % inhibition T4 70' 5 (DRC-1, read at 70', concentration 5): 0.633% | % inhibition T4 70' 10 (DRC-1, read at 70', concentration 10): 1.77% | % inhibition T4 70' 20 (DRC-1, read at 70', concentration 20): 0.0404% | % inhibition T4 70' 40 (DRC-1, read at 70', concentration 40): 8% | % inhibition T4 70' 80 (DRC-1, read at 70', concentration 80): 9% | % inhibition T4 130' 2.5 (DRC-1, read at 130', concentration 2.5): 7% | % inhibition T4 130' 5 (DRC-1, read at 130', concentration 5): -0.436% | % inhibition T4 130' 10 (DRC-1, read at 130', concentration 10): 0.362% | % inhibition T4 130' 20 (DRC-1, read at 130', concentration 20): -1.3% | % inhibition T4 130' 40 (DRC-1, read at 130', concentration 40): 6% | % inhibition T4 130' 80 (DRC-1, read at 130', concentration 80): 8.47% | % inhibition T4 10' 2.5 (DRC-2, concentration 2.5): 3.49% | % inhibition T4 10' 5 (DRC-2, concentration 5): -2.24% | % inhibition T4 10' 10 (DRC-2, concentration 10): -1.16% | % inhibition T4 10' 20 (DRC-2, concentration 20): -2.26% | % inhibition T4 10' 40 (DRC-2, concentration 40): 0.721% | % inhibition T4 10' 80 (DRC-2, concentration 80): 0.788% | % inhibition T4 40' 2.5 (DRC-2, read at 40', concentration 2.5): 2.64% | % inhibition T4 40' 5 (DRC-2, read at 40', concentration 5): -2.79% | % inhibition T4 40' 10 (DRC-2, read at 40', concentration 10): -1.88% | % inhibition T4 40' 20 (DRC-2, read at 40', concentration 20): -2.36% | % inhibition T4 40' 40 (DRC-2, read at 40', concentration 40): 1% | % inhibition T4 40' 80 (DRC-2, read at 40', concentration 80): 0.512% | % inhibition T4 90' 2.5 (DRC-2, read at 90', concentration 2.5): 2% | % inhibition T4 90' 5 (DRC-2, read at 90', concentration 5): -3% | % inhibition T4 90' 10 (DRC-2, read at 90', concentration 10): -0.792% | % inhibition T4 90' 20 (DRC-2, read at 90', concentration 20): -3% | % inhibition T4 90' 40 (DRC-2, read at 90', concentration 40): -0.348% | % inhibition T4 90' 80 (DRC-2, read at 90', concentration 80): -1% | % inhibition T4 180' 2.5 (DRC-2, read at 180', concentration 2.5): -2.47% | % inhibition T4 180' 5 (DRC-2, read at 180', concentration 5): -8% | % inhibition T4 180' 10 (DRC-2, read at 180', concentration 10): -5% | % inhibition T4 180' 20 (DRC-2, read at 180', concentration 20): -7% | % inhibition T4 180' 40 (DRC-2, read at 180', concentration 40): -4% | % inhibition T4 180' 80 (DRC-2, read at 180', concentration 80): -2.58%
